In brackets after ≈: the same amount, converted by molar mass. Activity calls are given as the source filed them. No cut-off for these calls is given here.
How the values were obtained:
[1] = Drug level in tibial marrow of New Zealand rabbit at 40 mg/kg, sc administered every 6 hrs for 1 week measured after 3 hrs post last dose; conditions: read-out: Drug uptake
[2] = Drug level in tibial marrow of New Zealand rabbit osteomyelitis model at 40 mg/kg, sc administered every 6 hrs for 1 week measured after 3 hrs post last dose; conditions: read-out: Drug uptake
[3] = Cmax in New Zealand rabbit at 20 mg/kg, sc administered every 6 hrs for 4 days measured after 1 hr post first dose by RP-HPLC/MS/MS; assay type: ADME, organism-based, Oryctolagus cuniculus; design: dose 20 mg/kg, route subcutaneous; conditions: in vivo
[4] = Drug level in tibial matrix of New Zealand rabbit at 40 mg/kg, sc administered every 6 hrs for 1 week measured after 3 hrs post last dose; conditions: read-out: Drug uptake
Staphylococcus aureus [5] = assay: Antimicrobial activity against Staphylococcus aureus 168-1 isolated from osteomyelitis patient by broth macrodilution method; assay type: functional
[6] = Cmax in New Zealand rabbit at 20 mg/kg, sc administered every 6 hrs for 4 days measured 16th dose by RP-HPLC/MS/MS; assay type: ADME, organism-based, Oryctolagus cuniculus; design: dose 20 mg/kg, route subcutaneous; conditions: in vivo
Oryctolagus cuniculus [7] = assay: Toxicity in methicillin-resistant Staphylococcus aureus-infected New Zealand rabbit osteomyelitis model assessed as body weight at 40 mg/kg, sc administered every 6 hrs for 4 days measured on week 6 postinfection (reference value: […] +/- […] kg); assay type: organism-based; conditions: in vivo
[8] = Cmax in New Zealand rabbit osteomyelitis model at 40 mg/kg, sc administered every 6 hrs for 4 days; assay type: ADME, organism-based, Oryctolagus cuniculus; design: dose 40 mg/kg, route subcutaneous; conditions: in vivo
Staphylococcus aureus [9] = assay: Antimicrobial activity against methicillin-resistant Staphylococcus aureus infected in New Zealand rabbit osteomyelitis model assessed as improvement in extent of bone remodeling at 40 mg/kg, sc administered every 6 hrs for 4 weeks measured on week 2 posttreatment by radiographic analysis
Staphylococcus aureus [10] = assay: Antimicrobial activity against methicillin-resistant Staphylococcus aureus infected in New Zealand rabbit osteomyelitis model assessed as improvement in extent of bone remodeling at 40 mg/kg, sc administered every 6 hrs for 4 weeks measured on week 8 postinfection by radiographic analysis; assay type: functional, organism-based; design: dose 40 mg/kg
[11] = AUC in New Zealand rabbit at 80 mg/kg, sc administered every 6 hrs for 4 days measured after 1 hr post first dose by RP-HPLC/MS/MS; assay type: ADME, organism-based, Oryctolagus cuniculus; design: time < 1 hr, dose 80 mg/kg, route subcutaneous; conditions: plasma
[12] = Cmax in human at 500 mg, infusion up to 1 hr; conditions: in vivo
Oryctolagus cuniculus [13] = assay: Toxicity in methicillin-resistant Staphylococcus aureus-infected New Zealand rabbit osteomyelitis model assessed as body weight at 40 mg/kg, sc administered every 6 hrs for 4 days measured on week 2 postinfection (reference value: […] +/- […] kg); assay type: organism-based; conditions: in vivo
[14] = AUC in human at 500 mg, infusion up to 1 hr; conditions: plasma
[15] = Cmin in New Zealand rabbit at 20 mg/kg, sc administered every 6 hrs for 4 days measured after 1 hr post first dose by RP-HPLC/MS/MS; assay type: ADME, organism-based, Oryctolagus cuniculus; design: dose 20 mg/kg, route subcutaneous; conditions: New Zealand, in vivo, read-out: Cmin
Staphylococcus aureus [16] = assay: Antimicrobial activity against methicillin-resistant Staphylococcus aureus infected in New Zealand rabbit osteomyelitis model assessed as improvement in extent of bone remodeling at 40 mg/kg, sc administered every 6 hrs for 4 weeks measured on week 6 postinfection by radiographic analysis; assay type: functional, organism-based; design: dose 40 mg/kg
[17] = AUC in New Zealand rabbit at 20 mg/kg, sc administered every 6 hrs for 4 days measured after 1 hr post first dose by RP-HPLC/MS/MS; assay type: ADME, organism-based, Oryctolagus cuniculus; design: time < 1 hr, dose 20 mg/kg, route subcutaneous; conditions: plasma
Staphylococcus aureus [18] = assay: Antimicrobial activity against methicillin-resistant Staphylococcus aureus infected in New Zealand rabbit osteomyelitis model assessed as improvement in rate of bone reconstruction at 40 mg/kg, sc administered every 6 hrs for 4 weeks measured on week 2 posttreatment by radiographic analysis
Staphylococcus aureus [19] = assay: Antimicrobial activity against methicillin-resistant Staphylococcus aureus infected in New Zealand rabbit osteomyelitis model assessed as improvement in rate of bone reconstruction at 40 mg/kg, sc administered every 6 hrs for 4 weeks measured on week 8 postinfection by radiographic analysis; assay type: functional, organism-based; design: dose 40 mg/kg
[20] = Plasma concentration in New Zealand rabbit osteomyelitis model at 40 mg/kg, sc administered every 6 hrs for 1 week measured after 3 hrs post last dose
[21] = Cmax in New Zealand rabbit at 80 mg/kg, sc administered every 6 hrs for 4 days measured after 1 hr post first dose by RP-HPLC/MS/MS; assay type: ADME, organism-based, Oryctolagus cuniculus; design: dose 80 mg/kg, route subcutaneous; conditions: in vivo
[22] = Cmax in New Zealand rabbit at 80 mg/kg, sc administered every 6 hrs for 4 days measured 16th dose by RP-HPLC/MS/MS; assay type: ADME, organism-based, Oryctolagus cuniculus; design: dose 80 mg/kg, route subcutaneous; conditions: in vivo
[23] = Drug level in tibial matrix of New Zealand rabbit osteomyelitis model at 40 mg/kg, sc administered every 6 hrs for 1 week measured after 3 hrs post last dose; conditions: read-out: Drug uptake
Staphylococcus aureus [24] = assay: Antimicrobial activity against methicillin-resistant Staphylococcus aureus infected in New Zealand rabbit osteomyelitis model assessed as improvement in rate of bone reconstruction at 40 mg/kg, sc administered every 6 hrs for 4 weeks measured on week 6 postinfection by radiographic analysis; assay type: functional, organism-based; design: dose 40 mg/kg
Oryctolagus cuniculus [25] = assay: Toxicity in methicillin-resistant Staphylococcus aureus-infected New Zealand rabbit osteomyelitis model assessed as body weight at 40 mg/kg, sc administered every 6 hrs for 4 days measured on week 8 postinfection (reference value: […] +/- […] kg); assay type: organism-based; conditions: in vivo
Oryctolagus cuniculus [26] = assay: Toxicity in methicillin-resistant Staphylococcus aureus-infected New Zealand rabbit osteomyelitis model assessed as body weight at 40 mg/kg, sc administered every 6 hrs for 4 days measured on week 4 postinfection (reference value: […] +/- […] kg); assay type: organism-based; conditions: in vivo

## Nc1nc(/C(=N/O)C(=O)N[C@@H]2C(=O)N3C(C(=O)O)=C(/C=C4\CCN([C@@H]5CCNC5)C4=O)CS[C@H]23)ns1 [CEFTOBIPROLE]
[1]
  concentration at 3 h: 2400 ng/g
[2]
  concentration at 3 h: 12800 ng/g
[3]
  Cmax: 23800 ng/mL
[4]
  concentration at 3 h: 300 ng/g
Staphylococcus aureus [5]
  MBC: 6.25 µg/mL (≈ 11.7 µM)
  MIC: 0.39 µg/mL (≈ 0.73 µM)
[6]
  Cmax: 22100 ng/mL
Oryctolagus cuniculus [7]
  Activity: 2.86 kg
[8]
  Cmax: 76800 ng/mL
Staphylococcus aureus [9]
  Activity: Active
Staphylococcus aureus [10]
  Activity: Active
[11]
  AUC at 1 h: 215 µg·h/mL
[12]
  Cmax: 34200 ng/mL
Oryctolagus cuniculus [13]
  Activity: 2.64 kg
[14]
  AUC at 1 h: 116 µg·h/mL
[15]
  concentration at 1 h: 2700 ng/mL
Staphylococcus aureus [16]
  Activity: Active
[17]
  AUC at 1 h: 65.3 µg·h/mL
Staphylococcus aureus [18]
  Activity: Active
Staphylococcus aureus [19]
  Activity: Active
[20]
  concentration at 3 h: 4900 ng/mL
[21]
  Cmax: 83300 ng/mL
[22]
  Cmax: 58900 ng/mL
[23]
  concentration at 3 h: 900 ng/g
Staphylococcus aureus [24]
  Activity: Active
Oryctolagus cuniculus [25]
  Activity: 3.07 kg
Oryctolagus cuniculus [26]
  Activity: 2.73 kg

Reference: ChEMBL document CHEMBL1255345, “Efficacies of ceftobiprole medocaril and comparators in a rabbit model of osteomyelitis due to methicillin-resistant Staphylococcus aureus” (Antimicrob Agents Chemother, 2008)
